Test results from publication PMC7073886, “Structure–Bioactivity Relationships of Lapatinib Derived Analogs against Schistosoma mansoni” (ACS Medicinal Chemistry Letters, 2020).
Values after ≈ are worked out from the molar mass of the structure shown. Where two headings read alike, the source gives them in different places.

What was measured:
[1] = Human plasma protein binding (equilibrium dialysis); format: in vitro ADME; conditions: for human PPB (plasma protein binding): 10 µM, 37 °C
adult S. mansoni = experiment: Phenotypic screen of adult S. mansoni worms, severity scores and descriptors; format: cell-based, Schistosoma mansoni; conditions: for Descriptors (10 µM) 1 h / Severity Scores (10 μM) 1 h / Descriptors (10 µM) 5 h / Severity Scores (10 μM) 5 h / Descriptors (10 µM) 24 h / Severity Scores (10 μM) 24 h / Descriptors (10 µM) 48 h / Severity Scores (10 μM) 48 h: adult S. mansoni; for Descriptors (10 µM) 1 h / Descriptors (10 µM) 5 h / Descriptors (10 µM) 24 h / Descriptors (10 µM) 48 h: phenotypic descriptors; for Severity Scores (10 μM) 1 h / Severity Scores (10 μM) 5 h / Severity Scores (10 μM) 24 h / Severity Scores (10 μM) 48 h: scale 0 (no activity) to 4 (maximal activity); for bioactivity against adult S. mansoni: adult schistosomes; for Severity Scores (10 μM) 1 h / Severity Scores (10 μM) 5 h / Severity Scores (10 μM) 24 h / Severity Scores (10 μM) 48 h / bioactivity against adult S. mansoni: 10 μM
Method in brief: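 Adult S. mansoni (NMRI isolate, ≥42 days old) were co-incubated with compounds and changes in motility, density, shape and adherence recorded visually over time and concentration. Descriptors converted to severity scores from 0 (no activity) to 4 (maximal).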

HepG2 cells = experiment: Drug toxicity to HepG2 cells (MTT); format: cell-based; conditions: for HepG2 TC50: HepG2 cells, 48 hours incubation, MTT; for increase in toxicity against HepG2 cells compared with 3: relative to 3
[2] = Aqueous pH 7.4 solubility; format: physicochemical; conditions: for solubility: phosphate buffer pH 7.4, 25 °C, 20-24 h, read-out: aq sol (aqueous solubility)
[3] = Log D7.4 shake-flask octanol-water; format: physicochemical; conditions: pH 7.4
[4] = Human liver microsomal Clint; format: in vitro ADME; conditions: human liver microsomes, intrinsic clearance
Rat hepatocyte Clint = format: in vitro ADME; conditions: rat hepatocytes, intrinsic clearance

| Compound | human PPB (plasma protein binding) [1] [%] | Descriptors (10 µM) 1 h (adult S. mansoni) | Severity Scores (10 μM) 1 h (adult S. mansoni) | Descriptors (10 µM) 5 h (adult S. mansoni) | Severity Scores (10 μM) 5 h (adult S. mansoni) | Descriptors (10 µM) 24 h (adult S. mansoni) | Severity Scores (10 μM) 24 h (adult S. mansoni) | Descriptors (10 µM) 48 h (adult S. mansoni) | Severity Scores (10 μM) 48 h (adult S. mansoni) | HepG2 TC50 (HepG2 cells) [µM] | solubility [2] [µM] | LogD 7.4 [3] | HLM Clint [4] [μL/min/mg protein] | RH CLint (Rat hepatocyte Clint) [µL/min/10^6 cells] | other results |
| --- | --- | --- | --- | --- | --- | --- | --- | --- | --- | --- | --- | --- | --- | --- | --- |
| C[C@@H]1CNCCN1C(=O)c1ccc(-c2cccc(N3CCOCC3)c2)cc1N [S4d] | 63 | none | 0 | none | 0 | none | 0 | none | 0 | > 40 | 950 (≈ 361 µg/mL) | 1 |  |  |  |
| c1cnc(Nc2ccnc3cc(-c4cnc(N5CCOCC5)nc4)ccc23)cn1 [S2d] | 96 | Shrunk, S | 2 |  | 1 | none | 0 | none | 0 | 39 | 0.7 (≈ 0.27 µg/mL) | 3.7 | > 300 | 93 |  |
| O=S(=O)(c1ccc(-c2ccc3nccc(NCCC4CCOCC4)c3c2)cc1)N1CCOCC1 [S3h] | 82 | none | 0 | none | 0 | none | 0 | none | 0 | 21 | 200 (≈ 96.3 µg/mL) | 2.8 | 110 | 100 |  |
| O=S(=O)(c1ccc(-c2ccc3nccc(NCCN4CCCC4)c3c2)cc1)N1CCOCC1 [S3e] | 73 | none | 0 | none | 0 |  | 1 |  | 3 | 9.2 | 870 (≈ 406 µg/mL) | 2.2 | 28 | 10 |  |
| O=S(=O)(c1ccc(-c2ccc3nccc(NC4CCOCC4)c3c2)cc1)N1CCOCC1 [S3f] | 70 |  | 1 |  | 1 |  | 1 |  | 1 | 16 | 7 (≈ 3.17 µg/mL) | 2.3 | 59 | 20 |  |
| CN1CCCN(c2ncc(-c3ccc4nccc(Nc5cnccn5)c4c3)cn2)CC1 [S3i] | 81 | none | 0 | none | 0 | none | 0 |  |  | > 37 | 990 (≈ 408 µg/mL) | 2.5 | 48 | 12 |  |
| Cc1cnc(Nc2ccnc3cc(-c4cnc(N5CCN(C)CC5)nc4)ccc23)cn1 [5a] |  |  | 1 |  | 4 |  | 4 |  | 4 |  |  |  |  |  | fraction unbound at 10 µM ([1]; pH 7.4, 37 °C, read-out: human PPB (plasma protein binding) (converted)): 0.07; bioactivity against adult S. mansoni (adult S. mansoni): severe phenotypic response after just 5 h; microsomal CLint ([4]; read-out: HLM Clint): 240 µL/min/mg; increase in toxicity against HepG2 cells compared with 3 (HepG2 cells): greater than 1.9 fold; hepatocyte CLint (Rat hepatocyte Clint; read-out: RH CLint): 150 µL/min/1e6 cells; solubility ([2]; aqueous buffer, thermodynamic from solid): 13 µM (≈ 5.36 µg/mL); logD [3]: 3.6 |
| CS(=O)(=O)N1CCN(c2ncc(-c3ccc4c(Nc5cnccn5)ccnc4c3)cn2)CC1 [S2a] | 96 | none | 0 | none | 0 | none | 0 | none | 0 | > 33 | 0.06 (≈ 0.0278 µg/mL) | 3.1 | 44 | 28 |  |
| C[C@@H]1CNCCN1C(=O)c1ccc(-c2cnc(N3CCCN(C)CC3)nc2)cc1N [S4c] | 42 | none | 0 | none | 0 | none | 0 |  |  | > 37 | 930 (≈ 381 µg/mL) | -0.4 |  | 2.6 |  |
| Cc1cc2c(Nc3cnccn3)ccnc2cc1-c1cnc(N2CCN(C)CC2)nc1 [8a] |  | Unc, on sides | 2 |  |  |  | 4 |  | 4 |  |  |  |  |  | bioactivity against adult S. mansoni (adult S. mansoni): severe phenotypic response by 5 h; increase in toxicity against HepG2 cells compared with 3 (HepG2 cells): greater than 5 fold; decrease in aqueous solubility compared with 3 ([2]; relative to 3): > 2200 fold; logD [3]: 3.3 |
| CN1CCC(Nc2ccnc3ccc(-c4ccc(S(=O)(=O)N5CCOCC5)cc4)cc23)CC1 [S3c] | 58 | none | 0 | none | 0 | none | 0 | none | 0 | 26 | 790 (≈ 369 µg/mL) |  | 23 | 3.7 |  |
| CN(C)CCN(C)c1ncc(-c2ccc3c(Nc4cnccn4)ccnc3c2)cn1 [S2c] |  | none | 0 | none | 0 | none | 0 | none | 0 | > 38 | 630 (≈ 252 µg/mL) | 2.3 | 45 | 55 |  |
| C[S+]([O-])CCNc1ncc(-c2ccc3c(Nc4cnccn4)ccnc3c2)cn1 (stereo not shown) [S2b] |  | none | 0 | none | 0 | none | 0 |  |  | > 37 | 11 (≈ 4.46 µg/mL) | 1.7 | 6 | 7.6 |  |
